Assays:
[1] = system: blood cells; assay: Immunophenotyping on blood cells, combination with cyclophosphamide; assay type: in vivo, C57/BLJ6 mice; conditions: N = 4
Method: After in vivo drugs analysis, the drugs were evaluated on whole blood for drug stability and toxicity. Furthermore, in vivo/ex vivo analysis was performed on normal and cyclophosphamide immunosuppressed animals plus 5Fu-treated animals. Cell immunophenotyping was performed on mouse-treatedblood and spleen. The following cell surface antigens were analyzed:
CD3 (all T cells), CD4 (T helper/inducer, binds class II-restricted T cells), CD8a (cytotoxic T cells, CTL adhesion), CD11a (T, B, NK, some stem cells, CTL adhesion anti LFA-1α), MAC-1 (monocyte/macrophage), NK (natural killer cells), Ly5 (B cells), CD45 (all leukocytes, protein tyrosine phosphates), and TCR (T cell receptor).
C57/BLJ6 mice (6-8 weeks old) were injected daily for 4 consecutive days, sacrificed at day 5 and immunophenotyping was performed on blood and spleen cells.
The cells were washed twice in PBS, resuspended in 1 ml of RPMI 2% FBS, and incubated for 45 min. on ice with monoclonal antibody. The cells were washed once, fixed with 1% paraformaldehyde, then analyzed using XL Coulter® counter.

[2] = Body weight, compound #1 with Cytoxan 28 mg/kg (Example 94); assay type: in vivo, Balb/c mice; set-up: body weight: unit not given here
Method: In another experiment, the CTX treatment was prolonged. Balb/c mice were injected s.c. with 5×10^5 DA-3 tumor cells at day 0. At day 4 when established tumors appeared, tumor-bearing animals were randomized (n=11/gr.) and injected with CTX (at 28 mg/kg) i.v. bolus injections at days 4, 11, and 18. […]

CN(C)c1ncnc2c1ncn2CCCCCOC(=O)N[C@H](CCCNC(=N)N)C(=O)O [Compound #1, N,N-Dimethylaminopurinyl Pentoxycarbonyl D-Arginine]
CP8+ CD45+ (mean) ([1]; CY + cpd #1 25 mg/kg): 13.25
CP8+ CD45+ (mean) ([1]; CY + cpd #1 50 mg/kg): 20.8
body weight ([2]; BCH-1393 50 mg/kg + CTX 28 mg/kg, day 7): 18.2
body weight ([2]; BCH-1393 50 mg/kg + CTX 28 mg/kg, day 9): 19.1
body weight ([2]; BCH-1393 50 mg/kg + CTX 28 mg/kg, day 11): 19.0
body weight ([2]; BCH-1393 50 mg/kg + CTX 28 mg/kg, day 14): 18.6
body weight ([2]; BCH-1393 50 mg/kg + CTX 28 mg/kg, day 16): 19.5
body weight ([2]; BCH-1393 50 mg/kg + CTX 28 mg/kg, day 18): 19.3
body weight ([2]; BCH-1393 50 mg/kg + CTX 28 mg/kg, day 21): 18.9
body weight ([2]; BCH-1393 50 mg/kg + CTX 28 mg/kg, day 23): 18.8
body weight ([2]; BCH-1393 50 mg/kg + CTX 28 mg/kg, day 25): 19.5
body weight ([2]; BCH-1393 50 mg/kg + CTX 28 mg/kg, day 28): 19.4
body weight ([2]; BCH-1393 50 mg/kg + CTX 28 mg/kg, day 30): 19.3
body weight ([2]; BCH-1393 50 mg/kg Ip (Days 3-28) + CTX 28 mg/kg Iv (days 4, 11, 18), day 4): 18.7
body weight loss ([2]; compound #1 50 mg/kg + CTX 28 mg/kg): No significant body weight loss
body weight ([2]; single agent (CTX 28 mg/kg days 4, 11, 18, or BCH-1393 50 mg/kg days 3-28), day 4): 18.6
body weight ([2]; single agent (CTX 28 mg/kg or BCH-1393 50 mg/kg), day 7): 19.1
body weight ([2]; single agent (CTX 28 mg/kg or BCH-1393 50 mg/kg), day 9): 19.3
body weight ([2]; single agent (CTX 28 mg/kg or BCH-1393 50 mg/kg), day 11): 18.9
body weight ([2]; single agent (CTX 28 mg/kg or BCH-1393 50 mg/kg), day 14): 18.9
body weight ([2]; single agent (CTX 28 mg/kg or BCH-1393 50 mg/kg), day 16): 19.5
body weight ([2]; single agent (CTX 28 mg/kg or BCH-1393 50 mg/kg), day 18): 18.9
body weight ([2]; single agent (CTX 28 mg/kg or BCH-1393 50 mg/kg), day 21): 19.3
body weight ([2]; single agent (CTX 28 mg/kg or BCH-1393 50 mg/kg), day 23): 19.3
body weight ([2]; single agent (CTX 28 mg/kg or BCH-1393 50 mg/kg), day 25): 19.5
body weight ([2]; single agent (CTX 28 mg/kg or BCH-1393 50 mg/kg), day 28): 19.7
body weight ([2]; single agent (CTX 28 mg/kg or BCH-1393 50 mg/kg), day 30): 20.0
